# Test results published in patent US10813914B2, “Composition for controlling microsporidia in fishes and method for controlling microsporidia in fishes using same” (MARUHA NICHIRO CORPORATION, priority 2016, dated 2020).
# Marks after values point to notes of the source that are not given here.
# How the values were obtained:
# [1] = system: microsporidian cyst (beko cyst), beko disease; test: Prevention test using albendazole (4), two administration methods (1-6); type: in vivo, “Mojako” (yellowtail larva)
# Experimental: A preliminary test was conducted using two administration methods including different administration amounts of albendazole per one operation and different administration intervals. The preliminary test was performed according to the following procedure:
# (§1) Test number: Live 1000 fishes (each initial body weight: 7 g)
# (§2) Administration method: oral administration (feed together with spreading agent)
# (§3) Drug used: albendazole (compound represented by the above-described formula (3))
# Test group 1: 20 mg/kg Bw (20 mg per kg of fish body weight)
# Test group 2: 40 mg/kg Bw (40 mg per kg of fish body weight)
# Test group 1: 6 times/week (administered for 16 weeks)
# Test group 2: 2 times/2 week (administered for 16 weeks)
# A sampling test was carried out according to the same procedure as in the above-described 1-5.
# [2] = system: microsporidian cyst (beko cyst), beko disease; test: Prevention test using albendazole (3), 16 weeks administration (1-5); type: in vivo, “Mojako” (yellowtail larva); design: Negative: unit not given here
# Experimental: Administration of albendazole was continued for 16 weeks and a sampling test was performed at 2 weeks, 4 weeks, 6 weeks, 8 weeks, 12 weeks and 16 weeks after the start of administration in the same procedure as in the above-described 1-3. The sampling test was carried out in the same procedure also at 4 weeks after the termination of administration of albendazole (20 weeks after the start of administration).
# [3] = system: microsporidian cyst (beko cyst), beko disease; test: Prevention test using albendazole (1) (1-3); type: in vivo, “Mojako” (yellowtail larva); settings: 20 mg/kg Bw oral, 6 times/week
# Experimental: 1-3. Prevention Test Using Albendazole (1)
# (§4) A preliminary test was carried out according to the following procedure:
# as §1, §2, §3
# (§5) Administration amount: 20 mg/kg Bw (20 mg per kg of fish body weight)
# (§6) Administration interval: 6 times/week
# A sampling test was carried out according to the following procedure:
# Every two weeks from the start of administration, each 20 fishes of “Mojako” were taken out from each test group (100 fishes of “Mojako” at 8 weeks after the start of administration) and each fish was cut into three pieces. It was then visually tested whether the microsporidian cyst (beko cyst) was found in the pieces. When the beko cyst was observed, it was judged as positive and the test results were accumulated. Regarding the beko cyst that could be confirmed with the naked eye, the number was confirmed and the average infection number per one fish was determined.
# [4] = system: microsporidia; settings: culture test, Non-Patent Documents 3 to 7; cited from earlier work
# [5] = Weight, deaths and food intake of Mojako in prevention test 1-3; type: in vivo, “Mojako” (yellowtail larva); design: Weight of Mojako: unit: g; settings: 20 mg/kg Bw oral, 6 times/week
# Experimental: as §4, §1, §5, §6
# [6] = system: microsporidian cyst (beko cyst), beko disease; test: Prevention test using albendazole (2), reduced dose (1-4); type: in vivo, “Mojako” (yellowtail larva); settings: out of 100 fishes at 8 weeks after the start of administration
# Experimental: Albendazole administration and a sampling test were carried out in the same procedure as in the above-described 1-3 except that the administration amount of albendazole was reduced to 5 or 10 mg/kg Bw. In the 10 mg/kg administration group, the number of (positive) individuals showing generation of the beko cyst was 0 out of 100 fishes of “Mojako” at 8 weeks after the start of administration. When the administration amount of albendazole was reduced to 5 mg/kg Bw, generation of the beko cyst was confirmed in 3 out of 100 fishes of “Mojako” at 8 weeks after the start of administration.
# [7] = system: microsporidian cyst (beko cyst), beko disease; test: Prevention test using albendazole (5) in Kanpachi (1-7); type: in vivo, “Kanpachi” (great amberjack); settings: 40 mg/kg Bw oral, 6 times/week
# Experimental: A prevention test against the beko disease by administering albendazole was carried out using “Kanpachi” instead of “Mojako”.
# A preliminary test was performed according to the following procedure:
# Test number: Live 1000 fishes (each initial body weight: 50 g)
# as §2, §3
# Administration amount: 40 mg/kg Bw (40 mg per kg of fish body weight)
# as §6
# Sampling test procedure: same as in the above-described 1-1
# [8] = system: beko cyst, beko disease; test: Treatment test of Mojako infected with beko disease using albendazole (2-1); type: in vivo, “Mojako” (yellowtail larva); settings: 50 mg/kg Bw oral, 6 times/week
# Experimental: 2-1: Test by Treating “Mojako” Infected with Beko Disease Using Albendazole
# A treatment test was carried out according to the following procedure.
# Test number: Live 1000 fishes (test samples showing apparent infection with beko disease according to visual test at the time of vaccine inoculation were selected and tested)
# as §2, §3
# Administration amount: 50 mg/kg Bw (50 mg per kg of fish body weight)
# as §6
# Samples of “Mojako” showing irregularities on the body surface with certainty of beko infection in visual test at the time of vaccine inoculation were selected and divided randomly into the control group and the test group.
# [9] = 20 mg/kg Bw oral, 6 times/week, 2 Weeks
# [10] = 20 mg/kg Bw oral, 6 times/week, 4 Weeks
# [11] = 20 mg/kg Bw oral, 6 times/week, 6 Weeks
# [12] = 20 mg/kg Bw oral, 6 times/week, 8 Weeks
# [13] = 20 mg/kg Bw oral, 6 times/week, 12 Weeks
# [14] = 20 mg/kg Bw oral, 6 times/week, 16 Weeks
# [15] = 20 Weeks after start = 4 weeks after termination of 16-week administration
smiles,measurement,setting,value
"CCCSc1ccc2nc(NC(=O)OC)[nH]c2c1 [Albendazole, albendazole]",Positive fishes (beko cyst) / fishes sampled,"[1]; Test group 1: 20 mg/kg Bw, 6 times/week for 16 weeks, 8 Weeks, p < 0.001",0/50***
same,Positive fishes (beko cyst) / fishes sampled,"[1]; Test group 1: 20 mg/kg Bw, 6 times/week for 16 weeks, 16 Weeks, p < 0.0001",0/70****
same,Positive fishes (beko cyst) / fishes sampled,"[1]; Test group 1: 20 mg/kg Bw, 6 times/week for 16 weeks, 24 Weeks (8 weeks after termination), 20 mg/kg",16/50
same,Positive fishes (beko cyst) / fishes sampled,"[1]; Test group 1: 20 mg/kg Bw, 6 times/week for 16 weeks, 24 Weeks (8 weeks after termination), listed as albendazole, 20 mg/kg",did not continue until 8 weeks after termination of administration
same,Positive fishes (beko cyst) / fishes sampled,"[1]; Test group 1: 20 mg/kg Bw, 6 times/week for 16 weeks, at administration start time",0/20
same,Positive fishes (beko cyst) / fishes sampled,"[1]; Test group 2: 40 mg/kg Bw, 2 times/2 week for 16 weeks, 8 Weeks, p < 0.001",0/50***
same,Positive fishes (beko cyst) / fishes sampled,"[1]; Test group 2: 40 mg/kg Bw, 2 times/2 week for 16 weeks, 16 Weeks, p < 0.0001",0/70****
same,Positive fishes (beko cyst) / fishes sampled,"[1]; Test group 2: 40 mg/kg Bw, 2 times/2 week for 16 weeks, 24 Weeks (8 weeks after termination), p < 0.0001, 40 mg/kg",1/50****
same,Positive fishes (beko cyst) / fishes sampled,"[1]; Test group 2: 40 mg/kg Bw, 2 times/2 week for 16 weeks, 24 Weeks (8 weeks after termination), p < 0.0001, listed as albendazole, 40 mg/kg",significant suppression of generation of the beko cyst
same,Positive fishes (beko cyst) / fishes sampled,"[1]; Test group 2: 40 mg/kg Bw, 2 times/2 week for 16 weeks, at administration start time",0/20
same,Infection rate,[2]; [9],0%
same,Negative,[2]; [9],20
same,Positive,[2]; [9],0
same,Infection rate,[2]; [10],0%
same,Negative,[2]; [10],20
same,Positive,[2]; [10],0
same,Negative,[2]; [11],20
same,Positive,[2]; [11],0
same,Infection rate,"[2]; 20 mg/kg Bw oral, 6 times/week, 6 weeks, p < 0.05",0%*
same,Negative,[2]; [12],100
same,Positive,[2]; [12],0
same,Infection rate,"[2]; 20 mg/kg Bw oral, 6 times/week, 8 weeks, p < 0.01",0%**
same,Negative,[2]; [13],40
same,Positive,[2]; [13],0
same,Infection rate,"[2]; 20 mg/kg Bw oral, 6 times/week, 12 Weeks, p < 0.01",0%**
same,Negative,[2]; [14],46
same,Positive,[2]; [14],0
same,Infection rate,"[2]; 20 mg/kg Bw oral, 6 times/week, 16 Weeks, p < 0.01",0%**
same,Negative,[2]; [15],30
same,Positive,[2]; [15],0
same,Infection rate,"[2]; 20 Weeks after start = 4 weeks after termination of 16-week administration, p < 0.01",0%**
same,Negative,[2]; Total until 16 weeks,246
same,Positive,[2]; Total until 16 weeks,0
same,Infection rate,"[2]; Total until 16 weeks, p < 0.01",0%**
same,Time the effect of preventing infection with microsporidia continues after administration was terminated,"[2]; after 16 weeks of 20 mg/kg Bw oral, 6 times/week",at least 4 weeks
same,Positive fishes (beko cyst) / fishes sampled,[3]; 2 week,0/20
same,Positive fishes (beko cyst) / fishes sampled,[3]; 4 Weeks,0/20
same,Positive fishes (beko cyst) / fishes sampled,"[3]; 6 weeks, p < 0.05",0/20*
same,Positive fishes (beko cyst) / fishes sampled,"[3]; 8 weeks, p < 0.01",0/100**
same,Positive fishes (beko cyst) / fishes sampled,"[3]; Total of 2-8 weeks, p < 0.01",0/160**
same,Positive fishes (beko cyst) / fishes sampled,"[3]; Total of 2-8 weeks, p < 0.01, listed as albendazole",no positive was found
same,Antimicrobial activity against microsporidia,[4],high antimicrobial activity
same,Increase in the number of deaths and decline in food intake with respect to the control group,[5]; administration period,not recognized
same,Weight of Mojako,[5]; 0 week,7 ± 0.53
same,Weight of Mojako,[5]; 2 Weeks,18 ± 2.38
same,Weight of Mojako,[5]; 4 Weeks,29 ± 4.16
same,Weight of Mojako,[5]; 6 Weeks,51 ± 7.13
same,Body weight compared with the control group,[5]; 8 Weeks,significant increase in body weight
same,Influence on the growth of Mojako,[5]; 8 Weeks,does not exert a harmful influence on the growth
same,Weight of Mojako,[5]; 8 Weeks,73 ± 12.6
same,Number of (positive) individuals showing generation of the beko cyst,[6]; 5 mg/kg Bw oral,3
same,Number of (positive) individuals showing generation of the beko cyst,[6]; 10 mg/kg Bw oral,0
same,Positive fishes (beko cyst) / fishes sampled,"[7]; 8 Weeks, p < 0.01, 40 mg/kg",1/50**
same,Positive fishes (beko cyst) / fishes sampled,"[7]; 8 Weeks, p < 0.01, listed as albendazole, 40 mg/kg",significantly suppressed generation of the beko cyst
same,Positive fishes (beko cyst) / fishes sampled,[7]; at administration start time,1/20
same,Infection rate,[8]; 10 Days,60%
same,Number of positive fishes,"[8]; 10 Days, 10 samples",6
same,Number of positive fishes,"[8]; 21 Days, 63 samples",28
same,Infection rate,"[8]; 21 Days, p < 0.01, 50 mg/kg",44.4%**
same,Infection rate,"[8]; 21 Days, p < 0.01, listed as albendazole, 50 mg/kg",44.4%
same,Infection rate,[8]; at administration start time,100%
same,Number of positive fishes,"[8]; at administration start time, 10 samples",10
